For the first test, the system named is NF-κB. Nature of the test: NF-κB luciferase reporter assay in RAW 264.7 macrophages. It is filed as cell-based. The note with it: Mus musculus, RAW264.7; RAW 264.7 reporter cells, 2 hour pretreatment, 200 ng/ml LPS for 3 hours; read-out: NF-kB inhibitory activity IC50. As to the method: RAW 264.7 cells stably expressing a 3× NFkB response elemement-drive luciferase reporter were seeded into 96 well plates in sera-free medium (Optimem) 18 hours prior to compound application. Compounds of the invention were prepared by first making 100 mM stock solutions in EtOH. Stock solutions were then diluted 1:100 in low LPS FBS (Gemini BenchMark 100-106), mixed vigorously and allowed to incubate at room temperature for 30 minutes. 1:2 serial dilutions were then made in FBS supplemented with 1% EtOH, mixed vigorously, and again allowed to incubate at room temperature for 30 minutes before adding to RAW 264.7 reporter cells (final concentrations: 10% FBS, 100 uM highest compound dilution, 0.1% EtOH) for a 2 hour pretreatment prior to stimulation with LPS. Cells were then stimulated with 200 ng/ml LPS or vehicle control for 3 hours in the presence of the compounds of the invention. A set of six vehicles was left unstimulated with LPS in order to measure the assay floor. AlamarBlue viability dye (Invitrogen) was added to cells simultaneously with the delivery of LPS (final AlamarBlue concentration of 10%).
After the 3 h incubation period with LPS, cell viability was measured by reading fluorescence (excitation 550 nm, emission 595 nm) with a Perkin Elmer Victor V plate reader. Then cell media was aspirated from each well. Luciferase signal was then developed by addition of the Britelite Plus reagent (Perkin Elmer). Luciferase activity was measured with the Perkin Elmer Victor V plate reader. NF-κB activity was expressed as a percent of the vehicle control wells (stimulated with LPS). Compounds were tested at 6 dose point titrations in triplicate to determine IC50 values. Table 1 summarizes the […] values for a number of bis-fatty acid conjugates in this NF-κB luciferase reporter assay.
On to `CC/C=C\C/C=C\C/C=C\C/C=C\C/C=C\C/C=C\CCC(=O)O` [DHA, docosahexaenoic acid, reference compound], for which the IC50 is > 200 µM.

As to `CC/C=C\C/C=C\C/C=C\C/C=C\C/C=C\CCCC(=O)O` [EPA, eicosapentaenoic acid, reference compound], the IC50 was > 200 µM.

For `CC/C=C\C/C=C\C/C=C\C/C=C\C/C=C\C/C=C\CCC(=O)NCCNC(=O)CC/C=C\C/C=C\C/C=C\C/C=C\C/C=C\C/C=C\CC` [I-1, (4Z,7Z,10Z,13Z,16Z,19Z)-docosa-4,7,10,13,16,19-hexaenoic acid [2-((4Z,7Z,10Z,13Z,16Z,19Z)-docosa-4,7,10,13,16,19-hexaenoylamino)-ethyl]-amide], the IC50 was < 200 µM.

Turning to `CC/C=C\C/C=C\C/C=C\C/C=C\C/C=C\C/C=C\CCC(=O)NCCN(C)CCNC(=O)CC/C=C\C/C=C\C/C=C\C/C=C\C/C=C\C/C=C\CC` [I-2, (4Z,7Z,10Z,13Z,16Z,19Z)-docosa-4,7,10,13,16,19-hexaenoic acid (2-{[2-((4Z,7Z,10Z,13Z,16Z,19Z)-docosa-4,7,10,13,16,19-hexaenoylamino)-ethyl]-methyl-amino}-ethyl)-amide], the IC50 was < 50 µM.

Turning to `CC/C=C\C/C=C\C/C=C\C/C=C\C/C=C\C/C=C\CCC(=O)NCCNC(=O)CCC/C=C\C/C=C\C/C=C\C/C=C\C/C=C\CC` [I-37, (4Z,7Z,10Z,13Z,16Z,19Z)-docosa-4,7,10,13,16,19-hexaenoic acid [2-((5Z,8Z,11Z,14Z,17Z)-icosa-5,8,11,14,17-pentaenoylamino)-ethyl]-amide], the IC50 is < 200 µM.

On to `CC/C=C\C/C=C\C/C=C\C/C=C\C/C=C\C/C=C\CCC(=O)NCCN(C)CCNC(=O)CCC/C=C\C/C=C\C/C=C\C/C=C\C/C=C\CC` [I-39, (4Z,7Z,10Z,13Z,16Z,19Z)-docosa-4,7,10,13,16,19-hexaenoic acid (2-{[2((5Z,8Z,11Z,14Z,17Z)-icosa-5,8,11,14,17-pentaenoylamino)-ethyl]-methyl-amino}-ethyl)-amide], for which the IC50 is < 50 µM.

In the case of `CC/C=C\C/C=C\C/C=C\C/C=C\C/C=C\C/C=C\CCC(=O)N[C@@H](CCCCNC(=O)CCC/C=C\C/C=C\C/C=C\C/C=C\C/C=C\CC)C(=O)O` [I-45, (S)-2-((4Z,7Z,10Z,13Z,16Z,19Z)-docosa-4,7,10,13,16,19-hexaenoylamino)-6-((5Z,8Z,11Z,14Z,17Z)-icosa-5,8,11,14,17-pentaenoylamino)-hexanoic acid], the IC50 is < 50 µM.

In the case of `CC/C=C\C/C=C\C/C=C\C/C=C\C/C=C\C/C=C\CCC(=O)N[C@H](C(=O)OC)[C@@H](C)OC(=O)[C@H](C)NC(=O)CCC/C=C\C/C=C\C/C=C\C/C=C\C/C=C\CC` [I-65, (2S,3R)-methyl 2-((4Z,7Z,10Z,13Z,16Z,19Z)-docosa-4,7,10,13,16,19-hexaenamido)-3-((S)-2-((5Z,8Z,11Z,14Z,17Z)-icosa-5,8,11,14,17-pentaenamido)propanoyloxy)butanoate], the IC50 is < 50 µM.

For the molecule `CC/C=C\C/C=C\C/C=C\C/C=C\C/C=C\C/C=C\CCC(=O)N[C@@H](C)C(=O)O[C@H](C)[C@H](NC(=O)CCC/C=C\C/C=C\C/C=C\C/C=C\C/C=C\CC)C(=O)OC` [I-66, (2S,3R)-methyl 3-((S)-2-((4Z,7Z,10Z,13Z,16Z,19Z)-docosa-4,7,10,13,16,19-hexaenamido)propanoyloxy)-2-((5Z,8Z,11Z,14Z,17Z)-icosa-5,8,11,14,17-pentaenamido)butanoate], the IC50 was < 50 µM.

Consider `CC/C=C\C/C=C\C/C=C\C/C=C\C/C=C\C/C=C\CCC(=O)N1CCN(C(=O)CCC/C=C\C/C=C\C/C=C\C/C=C\C/C=C\CC)CC1` [I-67, (4Z,7Z,10Z,13Z,16Z,19Z)-1-[4-((5Z,8Z,11Z,14Z,17Z)-icosa-5,8,11,14,17-pentaenoyl)-piperazin-1-yl]-docosa-4,7,10,13,16,19-hexaen-1-one], for which the IC50 was < 200 µM.

As for `CC/C=C\C/C=C\C/C=C\C/C=C\C/C=C\CCCC(=O)N[C@@H](CCCCNC(=O)CCCC[C@@H]1CCSS1)C(=O)O` [I-107, (S)-6-((R)-5-[1,2]dithiolan-3-yl-pentanoylamino)-2-((5Z,8Z,11Z,14Z,17Z)-icosa-5,8,11,14,17-pentaenoylamino)-hexanoic acid], the IC50 was < 200 µM.

Another test deals with ApoB secretion in HepG2 cells. Nature of the test: ApoB secretion in HepG2 cells (ELISA). It is filed as cell-based. The note with it: Homo sapiens, incubated for 16 hours, FIG. 1, read-out: IC50 (concentration at which 50% of ApoB secretion is inhibited). How it is done: HepG2 cells (ATCC) are seeded at 25,000 cells per well in collagen-coated 96-well plates in growth media (DMEM with 10% fetal bovine serum). The following day, bis-fatty acid conjugates are complexed to lipoprotein-deficient fetal bovine serum at the appropriate concentration. Growth media is then removed from and the HepG2 cells are washed once with PBS. The lipoprotein-deficient FBS with the complexed bis-fatty acid conjugates is added to DMEM for a final 10% concentration. Each concentration of bis-fatty acid is tested in triplicate. Cells are incubated for 16 hours with the bis-fatty acid. Alamar Blue® (Invitrogen) is then added to the media to determine cell viability per the manufacturer's instructions. Two hours after Alamar Blue® addition, the media is removed and placed in a black 96-well plate. The plate is then read at 550 nm/590 nm to determine cell viability. The media is then used to determine ApoB concentrations using ELISA kits (Mabtech AB). Percent inhibition of ApoB secretion is determined by normalizing data to vehicle treated wells. For a given compound, an IC50 (concentration at which 50% of ApoB secretion is inhibited) can also be determined by using a 4 parameter-fit inhibition curve model (Graph Pad Prism®).
(In general: An ELISA detects its analyte on a solid surface through an enzyme-linked reagent.)
Consider `CC/C=C\C/C=C\C/C=C\C/C=C\C/C=C\C/C=C\CCC(=O)N[C@@H](C)C(=O)O[C@H](C)[C@H](NC(=O)CCC/C=C\C/C=C\C/C=C\C/C=C\C/C=C\CC)C(=O)OC` [I-66, (2S,3R)-methyl 3-((S)-2-((4Z,7Z,10Z,13Z,16Z,19Z)-docosa-4,7,10,13,16,19-hexaenamido)propanoyloxy)-2-((5Z,8Z,11Z,14Z,17Z)-icosa-5,8,11,14,17-pentaenamido)butanoate], for which the IC50 was 9.5 µM.

Values taken from patent publication US20130190327A1, “BIS-FATTY ACID CONJUGATES AND THEIR USES” (CATABASIS PHARMACEUTICALS INC, priority 2010, published 2013).
